According to patent EP4707277A1, “NOVEL HETEROCYCLIC AMINE DERIVATIVES AND PHARMACEUTICAL COMPOSITION COMPRISING SAME” (Daewoong Pharmaceutical Co., Ltd., priority 2023, dated 2024):
Like-named read-outs stand apart in the source and are kept apart here.

Tests used:
BTK = target: T1, BTK (Homo sapiens, UniProt Q06187); assay: Inhibitory activity against BTK, ADP-Glo Kinase system (Promega); type: biochemical
T1 construct: purchased Signalchem B10-10H
Outline: (§1)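 ADP-Glo luminescent ADP detection with recombinant human ITK (4 ng/reaction) or BTK (10 ng/reaction) and poly(Glu4,Tyr1) substrate at 0.2 µg/µl. Buffer: Tris pH 7.5, MgCl2, MnCl2, BSA, DTT. ATP 1 mM or Km (BTK 10 µM, ITK 25 µM); 1% DMSO; 1 h at 30°C; IC50 from curve fit.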

ITK = target: T2, ITK (Homo sapiens, UniProt Q08881); assay: Inhibitory activity against ITK, ADP-Glo Kinase system (Promega); type: biochemical
T2 construct: purchased Signalchem I13-11G-10
T2 sequence (Q08881 1-620): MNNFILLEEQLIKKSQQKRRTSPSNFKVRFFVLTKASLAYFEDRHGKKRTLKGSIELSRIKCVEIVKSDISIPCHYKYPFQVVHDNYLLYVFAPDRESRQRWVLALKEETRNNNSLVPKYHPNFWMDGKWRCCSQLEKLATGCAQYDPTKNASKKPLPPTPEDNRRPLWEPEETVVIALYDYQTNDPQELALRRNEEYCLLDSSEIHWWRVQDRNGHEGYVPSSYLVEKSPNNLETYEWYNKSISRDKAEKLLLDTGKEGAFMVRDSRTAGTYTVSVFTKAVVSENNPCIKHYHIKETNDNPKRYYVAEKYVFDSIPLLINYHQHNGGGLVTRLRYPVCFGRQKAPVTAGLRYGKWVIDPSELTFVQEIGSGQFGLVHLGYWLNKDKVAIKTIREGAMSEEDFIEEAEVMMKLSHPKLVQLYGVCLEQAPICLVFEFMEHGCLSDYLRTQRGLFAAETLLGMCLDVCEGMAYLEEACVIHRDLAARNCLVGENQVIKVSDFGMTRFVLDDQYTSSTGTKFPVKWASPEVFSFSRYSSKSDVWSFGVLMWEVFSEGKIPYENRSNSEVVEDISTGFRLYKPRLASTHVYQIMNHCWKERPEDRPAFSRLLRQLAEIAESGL
Outline: as §1

[1] = Km ATP (BTK: 10 uM), read-out: BTK IC50(nM) Km ATP
[2] = Km ATP (ITK: 25uM), read-out: ITK IC50(nM) Km ATP
[3] = 1mM ATP, read-out: BTK IC50(nM) 1mM ATP
[4] = 1mM ATP, read-out: ITK IC50(nM) 1mM ATP

T1 sequence (Q06187 whole entry): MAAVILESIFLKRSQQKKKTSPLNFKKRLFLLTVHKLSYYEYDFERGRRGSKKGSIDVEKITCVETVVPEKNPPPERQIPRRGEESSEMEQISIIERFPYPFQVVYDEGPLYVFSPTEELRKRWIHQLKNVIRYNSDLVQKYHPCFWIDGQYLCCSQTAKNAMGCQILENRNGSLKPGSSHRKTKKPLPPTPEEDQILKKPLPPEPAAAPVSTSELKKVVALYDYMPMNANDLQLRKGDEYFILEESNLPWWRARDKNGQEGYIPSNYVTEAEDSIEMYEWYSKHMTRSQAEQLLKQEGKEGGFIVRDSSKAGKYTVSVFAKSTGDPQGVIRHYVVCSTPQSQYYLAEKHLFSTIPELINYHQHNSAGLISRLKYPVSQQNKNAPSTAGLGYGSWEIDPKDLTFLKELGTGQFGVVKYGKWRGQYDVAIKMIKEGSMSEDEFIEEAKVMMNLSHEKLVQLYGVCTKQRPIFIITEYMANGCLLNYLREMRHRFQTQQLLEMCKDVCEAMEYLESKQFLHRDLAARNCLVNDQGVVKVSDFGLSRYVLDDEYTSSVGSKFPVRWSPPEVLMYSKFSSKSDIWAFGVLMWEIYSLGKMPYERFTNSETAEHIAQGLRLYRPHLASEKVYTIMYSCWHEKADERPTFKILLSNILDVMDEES

IC50 (BTK; [1]) [nM]	IC50 (ITK; [2]) [nM]	IC50 (BTK; [3]) [nM]	IC50 (ITK; [4]) [nM]	Structure (SMILES)
		> 500	> 500	C=CC(=O)N1CC[C@@H](Oc2nc(Nc3ncc(C)s3)cc3c2ccn3C(C)C)C1 [Example 162, (R)-1-(3-((1-isopropyl-6-((5-methylthiazol-2-yl)amino)-1H-pyrrolo[3,2-c]pyridin-4-yl)oxy)pyrrolidin-1-yl)prop-2-en-1-one]
≤ 20	≤ 20	20 to 100	20 to 100	C=CC(=O)N1CC=C(c2nc(Nc3ncc(C)s3)cc3c2ccn3CC2CC2)CC1 [Example 4, 1-(4-(1-(cyclopropylmethyl)-6-((5-methylthiazol-2-yl)amino)-1H-pyrrolo[3,2-c]pyridin-4-yl)-3,6-dihydropyridin-1(2H)-yl)prop-2-en-1-one]
		≤ 20	≤ 20	C=CC(=O)N1C[C@@H](Oc2nc(Nc3ncc(C)s3)cc3c2ccn3CC(C)C)C[C@H]1C [Example 96, 1-((2R,4S)-4-((1-isobutyl-6-((5-methylthiazol-2-yl)amino)-1H-pyrrolo[3,2-c]pyridin-4-yl)oxy)-2-methylpyrrolidin-1-yl)prop-2-en-1-one]
		≤ 20	≤ 20	C=CC(=O)N1CC[C@@H]1COc1nc(Nc2ncc(C)s2)cc2c1ccn2CC(F)(F)F [Example 208, (R)-1-(2-(((6-((5-methylthiazol-2-yl)amino)-1-(2,2,2-trifluoroethyl)-1H-pyrrolo[3,2-c]pyridin-4-yl)oxy)methyl)azetidin-1-yl)prop-2-en-1-one]
		≤ 20	≤ 20	C=CC(=O)N1CC[C@H](Oc2nc(Nc3ncc(C)s3)cc3c2ccn3C2CCCC2)C1 [Example 99, (S)-1-(3-((1-cyclopentyl-6-((5-methylthiazol-2-yl)amino)-1H-pyrrolo[3,2-c]pyridin-4-yl)oxy)pyrrolidin-1-yl)prop-2-en-1-one]
		≤ 20	20 to 100	C=CC(=O)N1CCC[C@H](Oc2nc(Nc3ncc(C)s3)cc3c2ccn3CC)C1 [Example 153, (S)-1-(3-((1-ethyl-6-((5-methylthiazol-2-yl)amino)-1H-pyrrolo[3,2-c]pyridin-4-yl)oxy)piperidin-1-yl)prop-2-en-1-one]
		≤ 20	20 to 100	C=CC(=O)N1CCC[C@H]1COc1nc(Nc2ncc(C)s2)cc2c1ccn2C1CCCC1 [Example 222, (S)-1-(2-(((1-cyclopentyl-6-((5-methylthiazol-2-yl)amino)-1H-pyrrolo[3,2-c]pyridin-4-yl)oxy)methyl)pyrrolidin-1-yl)prop-2-en-1-one]
		≤ 20	20 to 100	C=CC(=O)N1CCC[C@H](Oc2nc(Nc3ncc(C)s3)cc3c2ccn3C)C1 [Example 158, (S)-1-(3-((1-methyl-6-((5-methylthiazol-2-yl)amino)-1H-pyrrolo[3,2-c]pyridin-4-yl)oxy)piperidin-1-yl)prop-2-en-1-one]
		> 500	> 500	C=CC(=O)N1C[C@H](Oc2nc(Nc3ncc(C)s3)cc3c2ccn3CC(C)C)[C@@H](F)C1 [Example 134, 1-((3S,4S)-3-fluoro-4-((1-isobutyl-6-((5-methylthiazol-2-yl)amino)-1H-pyrrolo[3,2-c]pyridin-4-yl)oxy)pyrrolidin-1-yl)prop-2-en-1-one]
		≤ 20	20 to 100	C=CC(=O)N1CC[C@H](Oc2nc(Nc3cc(C)[nH]n3)cc3c2ccn3C(C)C)C1 [Example 194, (S)-1-(3-((1-isopropyl-6-((5-methyl-1H-pyrazol-3-yl)amino)-1H-pyrrolo[3,2-c]pyridin-4-yl)oxy)pyrrolidin-1-yl)prop-2-en-1-one]
		≤ 20	≤ 20	C=CC(=O)N1CC(C)(Oc2nc(Nc3ncc(C)s3)cc3c2ccn3CC2CC2)C1 [Example 167, 1-(3-((1-(cyclopropylmethyl)-6-((5-methylthiazol-2-yl)amino)-1H-pyrrolo[3,2-c]pyridin-4-yl)oxy)-3-methylazetidin-1-yl)prop-2-en-1-one]
		≤ 20	≤ 20	C=CC(=O)N1CCC[C@@H]1COc1nc(Nc2ncc(C)s2)cc2c1ccn2CC(F)F [Example 210, (R)-1-(2-(((1-(2,2-difluoroethyl)-6-((5-methylthiazol-2-yl)amino)-1H-pyrrolo[3,2-c]pyridin-4-yl)oxy)methyl)pyrrolidin-1-yl)prop-2-en-1-one]

More lines, now with the values behind:

Structure (SMILES)	IC50 (BTK; [1]) [nM]	IC50 (ITK; [2]) [nM]	IC50 (BTK; [3]) [nM]	IC50 (ITK; [4]) [nM]
C=CC(=O)Nc1cc(-c2nc(Nc3ncc(C)s3)cc3c2ccn3C)ccc1F [Example 54, N-(2-fluoro-5-(1-methyl-6-((5-methylthiazol-2-yl)amino)-1H-pyrrolo[3,2-c]pyridin-4-yl)phenyl)acrylamide]	≤ 20	20 to 100		
C=CC(=O)N1C[C@H](F)[C@H](Oc2nc(Nc3ncc(C(=O)NC)s3)cc3c2ccn3CC(C)C)C1 [Example 182, 2-((4-(((3R,4S)-1-acryloyl-4-fluoropyrrolidin-3-yl)oxy)-1-isobutyl-1H-pyrrolo[3,2-c]pyridin-6-yl)amino)-N-methylthiazole-5-carboxamide]			≤ 20	≤ 20
C=CC(=O)N1CC=C(c2nc(Nc3ncc(C)s3)cc3c2ccn3Cc2ccccc2)CC1 [Example 15, 1-(4-(1-benzyl-6-((5-methylthiazol-2-yl)amino)-1H-pyrrolo[3,2-c]pyridin-4-yl)-3,6-dihydropyridin-1(2H)-yl)prop-2-en-1-one]	≤ 20	≤ 20		
C=CC(=O)Nc1cccc(-c2nc(Nc3ncc(C)s3)cc3c2ccn3C(C)C)c1C [Example 58, N-(3-(1-isopropyl-6-((5-methylthiazol-2-yl)amino)-1H-pyrrolo[3,2-c]pyridin-4-yl)-2-methylphenyl)acrylamide]			≤ 20	≤ 20
C=CC(=O)Nc1cccc(-c2nc(Nc3ncc(C)s3)cc3c2ccn3C)c1F [Example 51, N-(2-fluoro-3-(1-methyl-6-((5-methylthiazol-2-yl)amino)-1H-pyrrolo[3,2-c]pyridin-4-yl)phenyl)acrylamide]	≤ 20	≤ 20		
C=CC(=O)N1C2C=C(c3nc(Nc4ncc(C)s4)cc4c3ccn4CC(F)(F)F)CC1CC2 (stereo not drawn) [Example 35, 1-(3-(6-((5-methylthiazol-2-yl)amino)-1-(2,2,2-trifluoroethyl)-1H-pyrrolo[3,2-c]pyridin-4-yl)-8-azabicyclo[3.2.1]oct-2-en-8-yl)prop-2-en-1-one]			≤ 20	≤ 20
C=CC(=O)N1C[C@H](F)[C@H](Oc2nc(Nc3ncc(C#N)s3)cc3c2ccn3CC(C)C)C1 [Example 181, 2-((4-(((3R,4S)-1-acryloyl-4-fluoropyrrolidin-3-yl)oxy)-1-isobutyl-1H-pyrrolo[3,2-c]pyridin-6-yl)amino)thiazole-5-carbonitrile]			≤ 20	≤ 20
CC#CC(=O)N1C[C@H](F)[C@H](Oc2nc(Nc3ncc(C)s3)cc3c2ccn3CC(C)C)C1 [Example 230, 1-((3S,4R)-3-fluoro-4-((1-isobutyl-6-((5-methylthiazol-2-yl)amino)-1H-pyrrolo[3,2-c]pyridin-4-yl)oxy)pyrrolidin-1-yl)but-2-yn-1-one]			> 500	> 500
C=CC(=O)Nc1ccc(F)c(-c2nc(Nc3ncc(C)s3)cc3c2ccn3CC(C)C)c1 [Example 63, N-(4-fluoro-3-(1-isobutyl-6-((5-methylthiazol-2-yl)amino)-1H-pyrrolo[3,2-c]pyridin-4-yl)phenyl)acrylamide]	≤ 20	20 to 100	20 to 100	100 to 500
C=CC(=O)N1CC=C(c2nc(Nc3ncc(C)s3)cc3c2ccn3CC2(C(F)(F)F)CC2)CC1 [Example 17, 1-(4-(6-((5-methylthiazol-2-yl)amino)-1-((1-(trifluoromethyl)cyclopropyl)methyl)-1H-pyrrolo[3,2-c]pyridin-4-yl)-3,6-dihydropyridin-1(2H)-yl)prop-2-en-1-one]	≤ 20	≤ 20		
C=CC(=O)Nc1cc(-c2nc(Nc3ncc(C)s3)cc3c2ccn3CC2CCOC2)ccc1F (stereo not drawn) [Example 72, N-(2-fluoro-5-(6-((5-methylthiazol-2-yl)amino)-1-((tetrahydrofuran-3-yl)methyl)-1H-pyrrolo[3,2-c]pyridin-4-yl)phenyl)acrylamide]	≤ 20	≤ 20		
C=CC(=O)Nc1ccc(F)c(-c2nc(Nc3ncc(C)s3)cc3c2ccn3CC(F)F)c1 [Example 75, N-(3-(1-(2,2-difluoroethyl)-6-((5-methylthiazol-2-yl)amino)-1H-pyrrolo[3,2-c]pyridin-4-yl)-4-fluorophenyl)acrylamide]	≤ 20	≤ 20	20 to 100	100 to 500
